Test results taken from ChEMBL document CHEMBL5346943, “Discovery and Structural Optimization of Novel Quinolone Derivatives as Potent Irreversible Pan-Fibroblast Growth Factor Receptor Inhibitors for Treating Solid Tumors” (J Med Chem, 2023).
≈ marks a conversion by molar mass, not a printed value.

Experiments:
[1] = test system: Huh-7; assay: Antitumor activity against human Huh-7 cells xenografted in BALB/c nude mouse assessed as reduction in tumor growth once daily administered orally for 24 days; format: functional; settings: dose 15-60 mg/kg, route po, time 24.0 day
[2] = test system: MCF7; assay: Antiproliferative activity against human MCF7 cells incubated for 72 hrs by Cell counting kit 8 method; format: functional, cell-based; settings: MCF7, 72 h
[3] = test system: Huh-7; assay: Antiproliferative activity against human Huh-7 cells incubated for 72 hrs by Cell counting kit 8 method; format: functional, cell-based; settings: Huh-7, 72 h
[4] = AUC(0 to infinity) in Sprague-Dawley rat measured at 30 mg/kg, po for 0.083 to 24 hrs by LC-MS/MS analysis; format: ADME, organism-based; set-up: time upper 24 hrs, dose 30 mg/kg, time lower 0.083 hrs, route po; settings: in vivo
[5] = Tmax in Sprague-Dawley rat measured at 60 mg/kg, po for 0.083 to 24 hrs by LC-MS/MS analysis; format: ADME, organism-based; settings: in vivo, time 0.083-24 hrs
[6] = test system: NCI-H1581; assay: Antitumor activity against human NCI-H1581 cells xenografted in BALB/c nude mouse assessed as tumor growth inhibition once daily at 60 mg/kg, po for 24 days relative to control; format: functional; set-up: scale not given: the % may be the effect or the level left; settings: time 24 day
[7] = AUC(0 to infinity) in Sprague-Dawley rat measured at 60 mg/kg, po for 0.083 to 24 hrs by LC-MS/MS analysis; format: ADME, organism-based; set-up: time lower 0.083 hrs, dose 60 mg/kg, time upper 24 hrs, route po; settings: in vivo
[8] = Solubility of the compound in PBS buffer of pH7.4 at 10 mM measured after 2 hrs by LC-MS/MS analysis; format: physicochemical; settings: pH 7.4
[9] = Half life in Sprague-Dawley rat measured at 2 mg/kg, iv for 0.083 to 24 hrs by LC-MS/MS analysis; format: ADME, organism-based; settings: in vivo, time 0.083-24 hrs
[10] = Toxicity in […] nude mouse xenografted with Huh-7 cells assessed as change in body weight once daily at 15 to 60 mg/kg, po for 24 days relative to control; format: organism-based; settings: in vivo, 576 h, dose 15-60 mg/kg, time 24 day
[11] = molecular target: Fibroblast growth factor receptor 1 (Homo sapiens, UniProt P11362); assay: Inhibition of FGFR1 (unknown origin) incubated for 10 mins followed by substrate addition measured after 60 mins by ADP-Glo luminescence assay
[12] = Microsomal stability in human liver microsomes assessed as intrinsic clearance preincubated for 10 mins followed by NADPH addition measured upto 60 mins by LC-MS/MS analysis; format: ADME, Microsome; settings: time < 70 min, read-out: CLH
[13] = Permeability of the compound at 10 uM preincubated in acceptor compartment for 16 hrs followed by 16 hrs incubation in donor compartment by PAMPA based LC-MS/MS analysis; format: ADME; settings: time 32 hrs, read-out: permeability
[14] = MRT (0 to t) in Sprague-Dawley rat measured at 10 mg/kg, po for 0.083 to 24 hrs by LC-MS/MS analysis; format: ADME, organism-based; settings: in vivo, time 0.083-24 hrs
[15] = Half life in Sprague-Dawley rat measured at 100 mg/kg, po for 0.083 to 24 hrs by LC-MS/MS analysis; format: ADME, organism-based; settings: in vivo, time 0.083-24 hrs
[16] = Half life in Sprague-Dawley rat measured at 60 mg/kg, po for 0.083 to 24 hrs by LC-MS/MS analysis; format: ADME, organism-based; settings: in vivo, time 0.083-24 hrs
[17] = Tmax in Sprague-Dawley rat measured at 10 mg/kg, po for 0.083 to 24 hrs by LC-MS/MS analysis; format: ADME, organism-based; settings: in vivo, time 0.083-24 hrs
[18] = AUC(0 to t) in Sprague-Dawley rat measured at 100 mg/kg, po for 0.083 to 24 hrs by LC-MS/MS analysis; format: ADME, organism-based; set-up: time upper 24 hrs, dose 100 mg/kg, time lower 0.083 hrs, route po; settings: in vivo

Fibroblast growth factor receptor 1, sequence (P11362 whole entry): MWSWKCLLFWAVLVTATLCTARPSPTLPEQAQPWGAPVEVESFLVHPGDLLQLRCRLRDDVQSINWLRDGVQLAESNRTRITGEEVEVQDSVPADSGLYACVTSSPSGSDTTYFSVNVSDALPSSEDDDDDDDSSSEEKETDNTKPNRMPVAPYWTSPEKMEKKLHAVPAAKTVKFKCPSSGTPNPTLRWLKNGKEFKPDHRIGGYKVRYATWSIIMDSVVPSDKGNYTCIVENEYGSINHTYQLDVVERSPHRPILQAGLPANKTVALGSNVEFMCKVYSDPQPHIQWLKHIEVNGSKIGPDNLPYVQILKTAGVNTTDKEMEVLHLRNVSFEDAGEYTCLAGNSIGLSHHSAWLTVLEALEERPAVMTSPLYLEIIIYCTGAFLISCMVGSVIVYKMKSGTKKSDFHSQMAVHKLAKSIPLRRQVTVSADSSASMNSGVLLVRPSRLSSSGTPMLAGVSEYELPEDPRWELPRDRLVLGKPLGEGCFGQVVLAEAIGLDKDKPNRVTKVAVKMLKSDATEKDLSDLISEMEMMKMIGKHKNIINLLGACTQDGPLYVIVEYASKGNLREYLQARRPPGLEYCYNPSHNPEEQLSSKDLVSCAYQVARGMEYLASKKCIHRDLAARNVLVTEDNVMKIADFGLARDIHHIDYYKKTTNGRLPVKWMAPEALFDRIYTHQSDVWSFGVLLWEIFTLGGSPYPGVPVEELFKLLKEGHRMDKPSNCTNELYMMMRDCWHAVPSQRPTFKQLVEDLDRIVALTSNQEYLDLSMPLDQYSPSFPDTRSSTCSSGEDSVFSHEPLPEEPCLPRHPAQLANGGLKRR

C=CC(=O)N1CCC(c2cc3c(Oc4ccc(NC(=O)NC5CC5)c(Cl)c4)ccnc3cc2OC)CC1
Activity [1]: Dose-Dependent Effect | IC50 [2]: > 10000 nM | IC50 [3]: 12.6 nM | AUC(0-inf) [4]: 7950 ng·h/mL | Tmax [5]: 30 min | Activity [6]: 67% | AUC(0-inf) [7]: 14900 ng·h/mL | solubility at 2 h, 10000 µM [8]: 1.73 µM (≈ 0.901 µg/mL) | half-life [9]: 15.6 min | Activity [10]: Active | IC50 [11]: 9.9 nM | microsomal CLint [12]: 46.7 µL/min/mg | Papp at 16 h, 10 µM [13]: 12.3 ×10⁻⁶ cm/s | MRT last [14]: 119 min | half-life [15]: 81.6 min | half-life [16]: 145 min | Tmax [17]: 15 min | AUC(0-t) [18]: 28100 ng·h/mL
